The record followed here is patent US9486506B2 (Novo Nordisk A/S, priority 2011, dated 2016).

One data set deals with T1, glucagon receptor (Homo sapiens, UniProt P47871).
T1 construct: expressed in transfected cells
Nature of the data set: Assay (I) Glucagon activity (cAMP biosensor, FLIPR). Type of data set: cell-based.

Data set [1] is described as follows: Assay (X) Chemical stability assessment by RP-UPLC. It counts as physicochemical. To be noted: pH 8.15, 14 days at 37° C. vs 5° C., 333 μM.

Numbered stars: 1 amine (or outer) side, 2 acyl side, 3 side chain; on linkers, the order of the positions; unused ones are H or OH. Side chains are listed from the residue outwards. Peptide text beside a SMILES is read from it. * marks the point of attachment. X1 = O=C(CCCCCCCCCCCCCCCc1nnn[nH]1)NS(=O)(=O)CCCC(=O)*; γGlu = O=C(O)[C@H](CCC(=O)[*:2])N[*:1]; AEEA = NCCOCCOCC(=O)O

T1 sequence (P47871 26-477): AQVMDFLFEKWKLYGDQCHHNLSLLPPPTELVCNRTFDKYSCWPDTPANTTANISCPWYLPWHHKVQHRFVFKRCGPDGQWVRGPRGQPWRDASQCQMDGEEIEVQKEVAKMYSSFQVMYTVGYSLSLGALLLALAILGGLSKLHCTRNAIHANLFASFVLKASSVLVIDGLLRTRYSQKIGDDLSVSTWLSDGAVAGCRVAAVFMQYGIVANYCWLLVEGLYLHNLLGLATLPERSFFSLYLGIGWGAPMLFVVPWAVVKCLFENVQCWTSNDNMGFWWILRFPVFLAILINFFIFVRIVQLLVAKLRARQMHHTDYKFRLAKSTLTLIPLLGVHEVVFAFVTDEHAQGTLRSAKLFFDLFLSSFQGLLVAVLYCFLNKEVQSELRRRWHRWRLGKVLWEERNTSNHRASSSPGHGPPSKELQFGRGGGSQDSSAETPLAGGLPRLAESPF

A word on the EC50: it is the concentration needed to bring the measured effect to its halfway point. A higher EC50 goes with lower potency in that assay. Regarding `CC(C)C[C@H](NC(=O)[C@H](Cc1ccc(O)cc1)NC(=O)[C@H](CCCCN)NC(=O)[C@H](CO)NC(=O)[C@H](Cc1ccc(O)cc1)NC(=O)[C@H](CC(=O)O)NC(=O)[C@H](CO)NC(=O)[C@@H](NC(=O)[C@H](Cc1ccccc1)NC(=O)[C@@H](NC(=O)CNC(=O)[C@H](CCC(N)=O)NC(=O)[C@H](CO)NC(=O)[C@@H](N)Cc1c[nH]cn1)[C@@H](C)O)[C@@H](C)O)C(=O)N[C@@H](CCC(=O)O)C(=O)N[C@@H](CO)C(=O)N[C@@H](CCCNC(=N)N)C(=O)N[C@@H](CCCNC(=N)N)C(=O)N[C@@H](C)C(=O)N[C@@H](CCC(N)=O)C(=O)N[C@@H](CC(=O)O)C(=O)N[C@@H](Cc1ccccc1)C(=O)N[C@H](C(=O)N[C@@H](CCCCNC(=O)CC[C@H](NC(=O)CC[C@H](NC(=O)COCCOCCNC(=O)CC[C@H](NC(=O)CCCS(=O)(=O)NC(=O)CCCCCCCCCCCCCCCc1nnn[nH]1)C(=O)O)C(=O)O)C(=O)O)C(=O)N[C@@H](Cc1c[nH]c2ccccc12)C(=O)N[C@@H](CC(C)C)C(=O)N[C@@H](CC(C)C)C(=O)N[C@@H](CO)C(=O)N[C@H](C(=O)O)[C@@H](C)O)C(C)C` [Example 65, N^ε24-[(4S)-4-carboxy-4-[[(4S)-4-carboxy-4-[[2-[2-[2-[[(4S)-4-carboxy-4-[4-[16-(1H-tetrazol-5-yl)hexadecanoylsulfarnoyl]butanoylamino]butanoyl]amino]ethoxy]ethoxy]acetyl]amino]butanoyl]amino]butanoyl]-[Glu15,Lys24,Leu27,Ser28]-Glucagon] (H-HSQGTFTSDYSKYLESRRAQDFVK([γGlu-γGlu-AEEA-γGlu-X1])WLLST-OH; N-terminus and C-terminus assumed), the EC50 on glucagon receptor was 0.362 nM. Further, the “Chemical stability [Purity loss/14 days 37 C.]” value in data set [1] stood at 7.8%.

On glucagon receptor, `CC(C)C[C@H](NC(=O)[C@H](Cc1ccc(O)cc1)NC(=O)[C@H](CCCCN)NC(=O)[C@H](CO)NC(=O)[C@H](Cc1ccc(O)cc1)NC(=O)[C@H](CC(=O)O)NC(=O)[C@H](CO)NC(=O)[C@@H](NC(=O)[C@H](Cc1ccccc1)NC(=O)[C@@H](NC(=O)CNC(=O)[C@H](CCC(N)=O)NC(=O)[C@H](CO)NC(=O)[C@@H](N)Cc1c[nH]cn1)[C@@H](C)O)[C@@H](C)O)C(=O)N[C@@H](CCC(=O)O)C(=O)N[C@@H](CO)C(=O)N[C@@H](CCCNC(=N)N)C(=O)N[C@@H](CCCNC(=N)N)C(=O)N[C@@H](C)C(=O)N[C@@H](CCC(N)=O)C(=O)N[C@@H](CC(=O)O)C(=O)N[C@@H](Cc1ccccc1)C(=O)N[C@H](C(=O)N[C@@H](CCCCNC(=O)CC[C@H](NC(=O)CC[C@H](NC(=O)COCCOCCNC(=O)CCCS(=O)(=O)NC(=O)CCCCCCCCCCCCCCCc1nnn[nH]1)C(=O)O)C(=O)O)C(=O)N[C@@H](Cc1c[nH]c2ccccc12)C(=O)N[C@@H](CC(C)C)C(=O)N[C@@H](CC(C)C)C(=O)N[C@@H](CO)C(=O)N[C@H](C(=O)O)[C@@H](C)O)C(C)C` [Example 66, N^ε24-[(4S)-4-carboxy-4-[[(4S)-4-carboxy-4-[[2-[2-[2-[4-[16-(1H-tetrazol-5-yl)hexadecanoylsulfarnoyl]butanoylamino]ethoxy]ethoxy]acetyl]amino]butanoyl]amino]butanoyl][Glu15,Lys24,Leu27,Ser28]-Glucagon] (H-HSQGTFTSDYSKYLESRRAQDFVK([γGlu-γGlu-AEEA-X1])WLLST-OH; N-terminus and C-terminus assumed) registered a 50% effective concentration (EC50) of 0.395 nM. Further, the “Chemical stability [Purity loss/14 days 37 C.]” value in data set [1] is on record as 8.3%.
